In the NIST ThermoML archive (doi:10.1007/s10765-008-0410-4):
Numbers after ± are expanded uncertainties.

Assay: xn = mol fraction of the nth substance listed
Conditions: Liquid, Vibrating tube method

CCCCn1cc[n+](C)c1.F[B-](F)(F)F [1-butyl-3-methylimidazolium tetrafluoroborate] + CCO
Conditions	mass density [kg/m3]
323.15 K, 10080 kPa, x1 = 0.9152	1186.23 ± 1.1
323.15 K, 10110 kPa, x1 = 0.3147	1033.63 ± 0.17
323.15 K, 10610 kPa, x1 = 1	1197.71 ± 1.4
323.15 K, 10730 kPa, x1 = 0.0701	865.61 ± 0.18
323.15 K, 10740 kPa, x1 = 0.7452	1159.11 ± 0.76
323.15 K, 14870 kPa, x1 = 0.5384	1115.29 ± 0.43
323.15 K, 15080 kPa, x1 = 0.7452	1161.39 ± 0.79
323.15 K, 15210 kPa, x1 = 0.9152	1188.77 ± 1.2
323.15 K, 15410 kPa, x1 = 0.3147	1037.07 ± 0.18
323.15 K, 15430 kPa, x1 = 0.0701	869.4 ± 0.19
323.15 K, 15440 kPa, x1 = 1	1200.01 ± 1.4
323.15 K, 20160 kPa, x1 = 0.5384	1118.22 ± 0.46
323.15 K, 20310 kPa, x1 = 0.7452	1164.06 ± 0.83
323.15 K, 20330 kPa, x1 = 0.0701	873.16 ± 0.21
323.15 K, 20460 kPa, x1 = 1	1202.37 ± 1.4
323.15 K, 20470 kPa, x1 = 0.9152	1191.31 ± 1.2
323.15 K, 20750 kPa, x1 = 0.3147	1040.38 ± 0.19
323.15 K, 25010 kPa, x1 = 0.9152	1193.45 ± 1.2
323.15 K, 25120 kPa, x1 = 0.7452	1166.45 ± 0.86
323.15 K, 25360 kPa, x1 = 1	1204.64 ± 1.5
323.15 K, 25380 kPa, x1 = 0.0701	876.83 ± 0.22
323.15 K, 25840 kPa, x1 = 0.5384	1121.23 ± 0.49
323.15 K, 26290 kPa, x1 = 0.3147	1043.62 ± 0.2
323.15 K, 30070 kPa, x1 = 0.9152	1195.79 ± 1.3
323.15 K, 30080 kPa, x1 = 0.7452	1168.84 ± 0.9
323.15 K, 30260 kPa, x1 = 0.5384	1123.49 ± 0.52
323.15 K, 30330 kPa, x1 = 0.0701	880.21 ± 0.24
323.15 K, 30640 kPa, x1 = 0.3147	1046.04 ± 0.21
323.15 K, 30740 kPa, x1 = 1	1207.09 ± 1.5
323.15 K, 34740 kPa, x1 = 0.0701	883.06 ± 0.25
323.15 K, 34960 kPa, x1 = 0.9152	1198 ± 1.3
323.15 K, 35070 kPa, x1 = 0.7452	1171.16 ± 0.94
323.15 K, 35260 kPa, x1 = 0.3147	1048.48 ± 0.22
323.15 K, 35420 kPa, x1 = 0.5384	1126.01 ± 0.55
323.15 K, 35650 kPa, x1 = 1	1209.29 ± 1.6
323.15 K, 39850 kPa, x1 = 1	1211.14 ± 1.6
323.15 K, 40000 kPa, x1 = 0.9152	1200.22 ± 1.4
323.15 K, 40010 kPa, x1 = 0.0701	886.25 ± 0.26
323.15 K, 40010 kPa, x1 = 0.7452	1173.4 ± 0.98
323.15 K, 40020 kPa, x1 = 0.5384	1128.17 ± 0.57
323.15 K, 40120 kPa, x1 = 0.3147	1050.91 ± 0.23
348.15 K, 210 kPa, x1 = 1	1174.44 ± 1.2
348.15 K, 230 kPa, x1 = 0.3147	1007.5 ± 0.16
348.15 K, 380 kPa, x1 = 0.7452	1134.96 ± 0.66
348.15 K, 450 kPa, x1 = 0.5384	1088.13 ± 0.34
348.15 K, 460 kPa, x1 = 0.9152	1163.17 ± 1
348.15 K, 520 kPa, x1 = 0.0701	835.75 ± 0.15
348.15 K, 5010 kPa, x1 = 0.5384	1091.32 ± 0.36
348.15 K, 5040 kPa, x1 = 0.9152	1165.81 ± 1
348.15 K, 5340 kPa, x1 = 0.0701	840.67 ± 0.17
348.15 K, 5360 kPa, x1 = 0.7452	1138.08 ± 0.69
348.15 K, 5740 kPa, x1 = 0.3147	1011.89 ± 0.16
348.15 K, 5960 kPa, x1 = 1	1177.75 ± 1.3
348.15 K, 10060 kPa, x1 = 0.5384	1094.71 ± 0.38
348.15 K, 10090 kPa, x1 = 0.7452	1140.95 ± 0.72
348.15 K, 10480 kPa, x1 = 1	1180.3 ± 1.3
348.15 K, 11210 kPa, x1 = 0.9152	1169.27 ± 1.1
348.15 K, 11420 kPa, x1 = 0.3147	1016.16 ± 0.16
348.15 K, 11710 kPa, x1 = 0.0701	846.75 ± 0.19
348.15 K, 15080 kPa, x1 = 0.9152	1171.38 ± 1.1
348.15 K, 15210 kPa, x1 = 0.5384	1098.01 ± 0.41
348.15 K, 15420 kPa, x1 = 0.7452	1144.07 ± 0.76
348.15 K, 15430 kPa, x1 = 1	1182.72 ± 1.3
348.15 K, 15740 kPa, x1 = 0.3147	1019.22 ± 0.17
348.15 K, 15840 kPa, x1 = 0.0701	850.45 ± 0.21
348.15 K, 20060 kPa, x1 = 0.5384	1100.98 ± 0.43
348.15 K, 20080 kPa, x1 = 0.7452	1146.71 ± 0.79
348.15 K, 20550 kPa, x1 = 0.0701	854.43 ± 0.22
